Experimental data as given in patent publication US4835162A (priority 1987, dated 1989).
Values joined by “and” are separate entries in the source; they are usually repeats but may differ in a detail not shown here. Equal entries are not always repeated. “Also recorded” adds a separate entry of the source. Where two headings read alike, the source gives them in different places.

How the values were obtained:
[1] = test system: nicotinic receptors (rat brain membranes); type: binding; settings: for IC50: read-out: 3H-Nicotine Binding IC50
[2] = target: nicotinic receptors (rat brain membranes); settings: read-out: 3H-MCC Binding IC50
rats [3] = test system: rats; parameters: species or system Sprague-Dawley male rats; Blockade of (nicotine-induced prostration) EC50: unit not given here; settings: rat, in vivo
rats [4] = settings: rat, in vivo
rats [5] = settings: rat, in vivo; remark: listed apart in the source
rats [6] = settings: rat, in vivo; remark: listed apart in the source
[7] = in vivo; cited from earlier work
rats [8] = assay: animal or person; settings: Rattus norvegicus, ip, 7 min, read-out: % Antagonism (seizures)
rats [9] = assay: animal or person; settings: Rattus norvegicus, iv, read-out: Antagonistic dose needed to completely block elevation in systolic blood pressure
rat brain = settings: cited from earlier work
[10] = test system: nicotinic receptors (rat brain membranes); type: binding
[11] = test system: nicotinic receptors (rat brain membranes)
[12] = target: nicotinic receptors (rat brain membranes); type: binding; settings: pH 7; read-out: [3H]-MCC IC50
rats [13] = settings: rat, in vivo; remark: listed apart in the source
rats [14] = settings: rat, in vivo; remark: listed apart in the source
rats or mice = settings: in vivo; cited from earlier work
[15] = test system: rat liver microsomal system; settings: cited from earlier work

## CN1[C@@H](CC(=O)c2ccccc2)CCC[C@H]1C[C@H](O)c1ccccc1 [α-lobeline, reference compound]
[1]
  binding affinity for nicotine receptor, in words: even greater affinity than (-)-nicotine for the receptor; also recorded: very high affinity for brain nicotine receptors
  IC50: 0.005 µM
[2]
  IC50: 0.0007 µM
Rats [3]
  Blockade of (nicotine-induced prostration) EC50: 10
  blockade of nicotine-induced prostration / antagonism, in words: most effective antagonist
Rats [4]
  Seizures: 1/8
  protection against seizures, in words: complete protection against seizures
Rats [5]
  % Antagonism (reduction of nicotine mortality): 75%
  Mortality: 2/10
Rats [6]
  Antagonistic dose needed to completely block elevation in systolic blood pressure: 0.2 ± 0.05 mg/kg
[7]
  pharmacologic effects, in words: suppress the desire for tobacco; also recorded: hypertensive action resulting from the stimulation of the carotid body; also recorded: broncio-construction; also recorded: brochoarrythmia
Rats [8]
  responders at 5 mg/kg: 0%
Rats [9]
  ED100: 0.2 mg/kg

## CC(=O)OCC[N+](C)(C)C [[^3 H]-acetylcholine]
Rat brain
  displaceability of [3H]-acetylcholine binding by muscarinic antagonists: displaceable by low concentrations of muscarinic antagonists

## CN1CCCC1c1cccnc1 (single isomer, unassigned; (-)) [[^3 H]-nicotine, (-)-[^3 H]-nicotine]
[10]
  displaceability of [3H]-nicotine binding by muscarinic antagonists: not displaceable by muscarinic cholinergic antagonists
[11]
  Bmax of higher affinity site, [3H]-nicotine: 5e-15 mol/mg
  Bmax of lower affinity site, [3H]-nicotine: 1e-14 mol/mg and 2e-14 mol/mg

## C[N+]1(C)CCCC1c1cccnc1 (centres unmarked) [N'--methyl nicotonium]
[10]; pH 7, read-out: [3H]-nicotine IC50
  IC50: 7 µM
[12]
  IC50: 4 µM
Rats [13]
  decrease in psychotropic potency with quaternization of nicotine: 50 fold
[1]; pH 7.5
  IC50: 7 µM
[2]; pH 7.5
  IC50: 4 µM
Rats [14]
  Prostration EC50: 100
Rats or mice
  potency in producing seizures and mortality, in words: more potent than nicotine in producing seizures and mortality

## C[N+](C)(C)CCOC(=O)c1ccccc1 [TMAE benzoate, benzoylcholine]
Rats [3]
  Blockade of (nicotine-induced prostration) EC50: 10
  times as effective as the DMAE ester: 5 times
Rats [4]
  Seizures: 1/8
  blockade of seizure activity: 78%
Rats [5]
  % Antagonism (protection against nicotine mortality): 63%
  Mortality: 3/10
Rats [6]
  Antagonistic dose needed to completely block elevation in systolic blood pressure: 1.5 ± 0.3 mg/kg
Rats [8]
  responders at 25 mg/kg: 78%
Rats [9]
  ED100: 1.5 mg/kg

## CNC(=O)OCC[N+](C)(C)C [MCC, Methylcarbamylcholine]
Rats [13]
  increase in psychotropic potency after quaternization of DMAE methyl carbamate: over 10 fold
  potency relative to (-)-nicotine (prostration): 1/5
Rats [14]
  Prostration EC50: 10
  duration of prostration: over 20 min
[15]
  metabolism: metabolized by a rat liver microsomal system
